Data reported in patent EP0000816A1, “Substituted amino-pyridine derivatives, processes for their preparation and pharmaceutical compositions containing them” (BEECHAM GROUP PLC, priority 1977, dated 1979).

Test system: male albino rats (C.F.Y. strain)
Assay: Hypolipidaemic assay: serum total cholesterol and triglyceride in rats given compound in diet
Format: in vivo
Conditions: 0.1% in diet for seven days; for % Cholesterol Lowering: serum total cholesterol compared with controls; for % Triglyceride Lowering: serum triglyceride compared with controls
Procedure: Groups of 8 male albino rats (C.F.Y. strain), weighing approximately 150 g., were given a powdered commercially available diet (oxoid) to which compounds were added at level of 0.1%. These diets were fed for seven days. The rats were then killed and their serum total cholesterol and triglyceride were measured by the Technicon Autoanalyser.

O=C(O)c1ccc(NCc2ccccc2)nc1
% Cholesterol Lowering: 34% | % Triglyceride Lowering: 30%

O=C(O)c1ccc(NCCCc2ccccc2)nc1
% Cholesterol Lowering: 16% | % Triglyceride Lowering: 38%
